# Target: IDH1 R132H (Homo sapiens (Human), UniProt O75874, R132H)
# Assay: In vitro assay for IDH1m (R132H) inhibitors, NADPH depletion with resazurin/resorufin detection
# Type: biochemical
# Conditions: IDH1 R132H enzyme, 50 minutes at room temperature; read-out: IDH R132H IC50
# Method: Assays were conducted in a volume of 76 μl assay buffer (150 mM NaCl, 10 mM MgCl2, 20 mM Tris pH 7.5, 0.03% bovine serum albumin) as follows in a standard 384-well plate: To 25 ul of substrate mix (8 uM NADPH, 2 mM aKG), 1 μl of test compound was added in DMSO. The plate was centrifuged briefly, and then 25 μl of enzyme mix was added (0.2 μg/ml IDH1 R132H) followed by a brief centrifugation and shake at 100 RPM. The reaction was incubated for 50 minutes at room temperature, then 25 μl of detection mix (30 μM resazurin, […]) was added and the mixture further incubated for 5 minutes at room temperature. The conversion of resazurin to resorufin was detected by fluorescent spectroscopy at Ex544 Em590 c/o 590.
# Representative compounds of formula (I) set forth in Tables 1 and 2 were tested in this assay and the results are set forth below in Table 4.
# Chain of IDH1 R132H (O75874 whole entry R132H): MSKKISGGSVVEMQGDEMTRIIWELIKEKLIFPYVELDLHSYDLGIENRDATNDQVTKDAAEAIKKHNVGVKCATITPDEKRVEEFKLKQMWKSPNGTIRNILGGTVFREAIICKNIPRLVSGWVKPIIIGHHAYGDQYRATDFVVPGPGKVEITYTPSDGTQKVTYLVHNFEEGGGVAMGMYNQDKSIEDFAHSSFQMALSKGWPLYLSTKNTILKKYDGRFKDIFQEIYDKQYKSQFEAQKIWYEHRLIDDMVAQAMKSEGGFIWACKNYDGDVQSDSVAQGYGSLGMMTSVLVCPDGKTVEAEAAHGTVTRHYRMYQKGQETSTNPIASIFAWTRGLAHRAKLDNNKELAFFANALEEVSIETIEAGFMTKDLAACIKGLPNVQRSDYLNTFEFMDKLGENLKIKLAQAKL
row,SMILES,IC50 [µM]
1,Cc1ccc(NC(=O)Nc2ccc(C(C)(C)C)cc2)cc1S(=O)(=O)Nc1ccc(Cl)cc1 [Compound 256],1 to 10
2,Cc1ccc(NC(=O)Nc2ccc(C)c(S(=O)(=O)Nc3ccc(Cl)cc3)c2)cc1C [Compound 259],1 to 10
3,Cc1cc(C)cc(NC(=O)Nc2ccc(C)c(S(=O)(=O)Nc3ccc(Cl)cc3)c2)c1 [Compound 260],1 to 10
4,CCc1cccc(CC)c1NC(=O)Nc1ccc(C)c(S(=O)(=O)Nc2ccc(Cl)cc2)c1 [Compound 261],1 to 10
5,Cc1cc([N+](=O)[O-])ccc1NC(=O)Nc1ccc(C)c(S(=O)(=O)Nc2ccc(Cl)cc2)c1 [Compound 262],1 to 10
6,Cc1ccc(NC(=O)Nc2ccc(C)c(S(=O)(=O)Nc3ccc(Cl)cc3)c2)cc1[N+](=O)[O-] [Compound 263],1 to 10
7,Cc1ccc(NC(=O)Nc2cccc([N+](=O)[O-])c2C)cc1S(=O)(=O)Nc1ccc(Cl)cc1 [Compound 264],1 to 10
8,COc1cccc(NC(=O)Nc2ccc(C)c(S(=O)(=O)Nc3ccc(Cl)cc3)c2)c1 [Compound 266],1 to 10
9,COc1ccc(OC)c(NC(=O)Nc2ccc(C)c(S(=O)(=O)Nc3ccc(Cl)cc3)c2)c1 [Compound 268],1 to 10
10,COc1cc(NC(=O)Nc2ccc(C)c(S(=O)(=O)Nc3ccc(Cl)cc3)c2)cc(OC)c1 [Compound 269],1 to 10
11,COc1ccc(Cl)cc1NC(=O)Nc1ccc(C)c(S(=O)(=O)Nc2ccc(Cl)cc2)c1 [Compound 270],1 to 10
12,COc1cc(OC)c(NC(=O)Nc2ccc(C)c(S(=O)(=O)Nc3ccc(Cl)cc3)c2)cc1Cl [Compound 271],1 to 10
13,COc1cc([N+](=O)[O-])ccc1NC(=O)Nc1ccc(C)c(S(=O)(=O)Nc2ccc(Cl)cc2)c1 [Compound 272],1 to 10
14,Cc1ccc(NC(=O)Nc2cccc([N+](=O)[O-])c2)cc1S(=O)(=O)Nc1ccc(Cl)cc1 [Compound 275],1 to 10
15,COC(=O)c1cccc(NC(=O)Nc2ccc(C)c(S(=O)(=O)Nc3ccc(Cl)cc3)c2)c1 [Compound 276],1 to 10
16,Cc1ccc(NC(=O)NCc2ccc(Cl)cc2Cl)cc1S(=O)(=O)Nc1ccc(Cl)cc1 [Compound 280],1 to 10
17,Cc1ccc(NC(=O)Nc2ccsc2)cc1S(=O)(=O)Nc1ccc(Cl)cc1 [Compound 289],1 to 10
18,Cc1ccc(NC(=O)Nc2ccc3c(c2)CCO3)cc1S(=O)(=O)Nc1ccc(Cl)cc1 [Compound 291],1 to 10

row,SMILES,IC50 [µM]
1,Cc1ccc(NC(=O)Nc2ccc3c(c2)OCO3)cc1S(=O)(=O)Nc1ccc(Cl)cc1 [Compound 292],1 to 10
2,Cc1ccc(NC(=O)Nc2cccc(C(F)(F)F)c2)cc1S(=O)(=O)Nc1ccccc1Cl [Compound 293],1 to 10
3,Cc1ccc(NC(=O)Nc2cccc(C(F)(F)F)c2)cc1S(=O)(=O)Nc1cccc(Cl)c1 [Compound 294],1 to 10
4,Cc1ccc(NC(=O)Nc2cccc(C(F)(F)F)c2)cc1S(=O)(=O)Nc1ccccc1F [Compound 295],1 to 10
5,Cc1ccc(NC(=O)Nc2cccc(C(F)(F)F)c2)cc1S(=O)(=O)Nc1cccc(F)c1 [Compound 296],1 to 10
6,Cc1ccc(NC(=O)Nc2cccc(C(F)(F)F)c2)cc1S(=O)(=O)Nc1ccc(F)cc1 [Compound 297],1 to 10
7,Cc1cc(F)ccc1NS(=O)(=O)c1cc(NC(=O)Nc2cccc(C(F)(F)F)c2)ccc1C [Compound 298],1 to 10
8,Cc1ccc(NC(=O)Nc2cccc(C(F)(F)F)c2)cc1S(=O)(=O)Nc1ccc(F)c(Cl)c1 [Compound 299],1 to 10
9,Cc1ccc(NC(=O)Nc2cccc(C(F)(F)F)c2)cc1S(=O)(=O)Nc1cc(F)c(F)cc1F [Compound 301],1 to 10
10,Cc1cccc(NS(=O)(=O)c2cc(NC(=O)Nc3cccc(C(F)(F)F)c3)ccc2C)c1 [Compound 302],1 to 10
11,"Cc1ccc(NC(=O)Nc2cccc(C(F)(F)F)c2)cc1S(=O)(=O)Nc1ccc(O)cc1 [Compound 304, N-(4-hydroxyphenyl)-2-methyl-5-(3-(3-(trifluoromethyl)phenyl)ureido)benzenesulfonamide]",≤ 1
12,CCCOc1ccc(NS(=O)(=O)c2cc(NC(=O)Nc3cccc(C(F)(F)F)c3)ccc2C)cc1 [Compound 305],1 to 10
13,Cc1ccc(NC(=O)Nc2cccc(C(F)(F)F)c2)cc1S(=O)(=O)Nc1ccc(OS(C)(=O)=O)cc1 [Compound 306],1 to 10
14,CCOC(=O)COc1ccc(NS(=O)(=O)c2cc(NC(=O)Nc3cccc(C(F)(F)F)c3)ccc2C)cc1 [Compound 308],1 to 10
15,CC(=O)Nc1ccc(NS(=O)(=O)c2cc(NC(=O)Nc3cccc(C(F)(F)F)c3)ccc2C)cc1 [Compound 309],1 to 10
16,CCOC(=O)CNc1ccc(NS(=O)(=O)c2cc(NC(=O)Nc3cccc(C(F)(F)F)c3)ccc2C)cc1 [Compound 310],1 to 10
17,Cc1ccc(NC(=O)Nc2cccc(C(F)(F)F)c2)cc1S(=O)(=O)Nc1ccc(C#N)cc1 [Compound 311],1 to 10

# More lines, now with the values ahead:
row,IC50 [µM],SMILES
1,1 to 10,Cc1ccc(NC(=O)Nc2ccc(C(C)C)cc2)cc1S(=O)(=O)Nc1ccc(Cl)cc1 [Compound 254]
2,1 to 10,Cc1ccc(NC(=O)Nc2ccccc2C(C)(C)C)cc1S(=O)(=O)Nc1ccc(Cl)cc1 [Compound 255]
3,1 to 10,Cc1ccc(NC(=O)Nc2c(C)cccc2C)cc1S(=O)(=O)Nc1ccc(Cl)cc1 [Compound 257]
4,1 to 10,Cc1ccc(NC(=O)Nc2cccc(C)c2C)cc1S(=O)(=O)Nc1ccc(Cl)cc1 [Compound 258]
5,1 to 10,COc1ccccc1NC(=O)Nc1ccc(C)c(S(=O)(=O)Nc2ccc(Cl)cc2)c1 [Compound 265]
6,1 to 10,COc1ccc(NC(=O)Nc2ccc(C)c(S(=O)(=O)Nc3ccc(Cl)cc3)c2)cc1 [Compound 267]
7,1 to 10,CSc1cccc(NC(=O)Nc2ccc(C)c(S(=O)(=O)Nc3ccc(Cl)cc3)c2)c1 [Compound 273]
8,1 to 10,CSc1ccc(NC(=O)Nc2ccc(C)c(S(=O)(=O)Nc3ccc(Cl)cc3)c2)cc1 [Compound 274]
9,1 to 10,Cc1ccc(NC(=O)NCc2ccc(Br)cc2)cc1S(=O)(=O)Nc1ccc(Cl)cc1 [Compound 277]
10,1 to 10,Cc1ccc(NC(=O)NCc2ccccc2F)cc1S(=O)(=O)Nc1ccc(Cl)cc1 [Compound 278]
11,1 to 10,Cc1ccc(NC(=O)NCc2cccc(F)c2)cc1S(=O)(=O)Nc1ccc(Cl)cc1 [Compound 279]
12,1 to 10,Cc1cccc(CNC(=O)Nc2ccc(C)c(S(=O)(=O)Nc3ccc(Cl)cc3)c2)c1 [Compound 282]
13,1 to 10,Cc1ccc(CNC(=O)Nc2ccc(C)c(S(=O)(=O)Nc3ccc(Cl)cc3)c2)cc1 [Compound 283]
14,1 to 10,Cc1ccc(NC(=O)N[C@H](C)c2ccccc2)cc1S(=O)(=O)Nc1ccc(Cl)cc1 [Compound 284]
15,1 to 10,Cc1ccc(NC(=O)Nc2ccccc2Cc2ccccc2)cc1S(=O)(=O)Nc1ccc(Cl)cc1 [Compound 285]
16,1 to 10,Cc1ccc(NC(=O)NC2C[C@H]2c2ccccc2)cc1S(=O)(=O)Nc1ccc(Cl)cc1 (stereo partly drawn) [Compound 286]
17,1 to 10,Cc1ccc(NC(=O)Nc2ccc3ccccc3c2)cc1S(=O)(=O)Nc1ccc(Cl)cc1 [Compound 287]
18,1 to 10,Cc1ccc(NC(=O)N[C@@H](C)c2cccc3ccccc23)cc1S(=O)(=O)Nc1ccc(Cl)cc1 [Compound 288]
19,1 to 10,Cc1ccc(NC(=O)Nc2c(-c3ccccc3)noc2C)cc1S(=O)(=O)Nc1ccc(Cl)cc1 [Compound 290]

# Source: patent publication US10202339B2, “Therapeutic compounds and compositions” (AGIOS PHARMACEUTICALS, INC., priority 2012, dated 2019)
